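Results reflect a 48-hour exposure of cells in 96-well plates to compound at five concentrations. At the GI50, growth is halved. The concentration for full growth arrest is given as TGI.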
How the values were obtained:
Assay in all cases: DTP human tumour cell line panel, 48 h
HCC-2998 colon = system: HCC-2998 colon
BT-549 breast = system: BT-549 breast
CAKI-1 renal = system: CAKI-1 renal
T-47D breast = system: T-47D breast
MDA-MB-435 = system: MDA-MB-435
CCRF-CEM leukemia = system: CCRF-CEM leukemia
PC-3 prostate = system: PC-3 prostate
NCI/ADR-RES ovarian = system: NCI/ADR-RES ovarian
HOP-62 NSCLC = system: HOP-62 NSCLC
MALME-3M melanoma = system: MALME-3M melanoma
SK-MEL-28 melanoma = system: SK-MEL-28 melanoma
SF-295 CNS = system: SF-295 CNS
HCT-15 colon = system: HCT-15 colon
SK-OV-3 ovarian = system: SK-OV-3 ovarian
SNB-75 CNS = system: SNB-75 CNS
UACC-62 melanoma = system: UACC-62 melanoma
SW-620 colon = system: SW-620 colon
OVCAR-5 ovarian = system: OVCAR-5 ovarian
HCT-116 colon = system: HCT-116 colon
UACC-257 melanoma = system: UACC-257 melanoma
EKVX NSCLC = system: EKVX NSCLC
SF-539 CNS = system: SF-539 CNS
SF-268 CNS = system: SF-268 CNS
LOX IMVI melanoma = system: LOX IMVI melanoma
SN12C renal = system: SN12C renal

CS(=O)(=O)c1ccc2c(c1)c1c(n2S(=O)(=O)c2ccc(Cl)cc2)CCCC1
GI50 (HCC-2998 colon): 3.57 µM | TGI (HCC-2998 colon): > 100 µM | GI50 (BT-549 breast): 5.39 µM | TGI (BT-549 breast): > 100 µM | GI50 (CAKI-1 renal): 3.12 µM | TGI (CAKI-1 renal): > 100 µM | GI50 (T-47D breast): 3.71 µM | TGI (T-47D breast): > 100 µM | GI50 (MDA-MB-435): 0.583 µM | TGI (MDA-MB-435): 3.29 µM | GI50 (CCRF-CEM leukemia): 3.16 µM | TGI (CCRF-CEM leukemia): > 100 µM | GI50 (PC-3 prostate): 3.42 µM | TGI (PC-3 prostate): > 100 µM | GI50 (NCI/ADR-RES ovarian): 2.33 µM | TGI (NCI/ADR-RES ovarian): > 100 µM | GI50 (HOP-62 NSCLC): 4.3 µM | TGI (HOP-62 NSCLC): > 100 µM | GI50 (MALME-3M melanoma): 7.11 µM | TGI (MALME-3M melanoma): > 100 µM | GI50 (SK-MEL-28 melanoma): 34.8 µM | TGI (SK-MEL-28 melanoma): > 100 µM | GI50 (SF-295 CNS): 4.08 µM | TGI (SF-295 CNS): > 100 µM | GI50 (HCT-15 colon): 1.93 µM | TGI (HCT-15 colon): > 100 µM | GI50 (SK-OV-3 ovarian): 4.95 µM | TGI (SK-OV-3 ovarian): > 100 µM | GI50 (SNB-75 CNS): 1.42 µM | TGI (SNB-75 CNS): 6.15 µM | GI50 (UACC-62 melanoma): 3.14 µM | TGI (UACC-62 melanoma): > 100 µM | GI50 (SW-620 colon): 2.82 µM | TGI (SW-620 colon): > 100 µM | GI50 (OVCAR-5 ovarian): 5.37 µM | TGI (OVCAR-5 ovarian): > 100 µM | GI50 (HCT-116 colon): 3.5 µM | TGI (HCT-116 colon): > 100 µM | GI50 (UACC-257 melanoma): 10.3 µM | TGI (UACC-257 melanoma): > 100 µM | GI50 (EKVX NSCLC): 5.55 µM | TGI (EKVX NSCLC): > 100 µM | GI50 (SF-539 CNS): 3.15 µM | TGI (SF-539 CNS): > 100 µM | GI50 (SF-268 CNS): > 100 µM | TGI (SF-268 CNS): > 100 µM | GI50 (LOX IMVI melanoma): 4.32 µM | TGI (LOX IMVI melanoma): > 100 µM | GI50 (SN12C renal): 5.19 µM | TGI (SN12C renal): > 100 µM

— PubChem BioAssay (NCI)
